Here are results for 20 compounds from patent US10548935B2, “Composition and method for preventing, reducing, alleviating or treating idiopathic vomiting” (Mars, Incorporated, priority 2013, dated 2020).

Data set [1] concerns the target T1, NK-1 receptor (Homo sapiens, UniProt P25103).
T1 construct: host or cells: U2OS (Tango TACR1-bla)
The data set is described as follows: Tango GPCR cell-based assay, TACR1-bla U2OS cells, NK-1 receptor inhibitors. The note with it: 1 nM SAR9 Substance P agonist. On the procedure: Various known high through-put screening assays can also be used to determine the inhibitory effects of a material on the NK-1 receptors.
One exemplary assay is the Tango™ G-Protein Coupled Receptors (GPCR) cell-based assays by Invitrogen. First, TACR1-bla U2OS cells (from Invitrogen) are cultured in McCoy's medium. The cultured cells are then plated in DMEM into 96-well plates (15,125 cells/well in 90 uL/well). After 16-24 hours, the cells are treated with test materials or positive control antagonist (which is 100 nM Aprepitant) and then incubated for 30-60 minutes at 37° C. in 5% CO2. Subsequently, the cells are treated with 1 nM SAR9 Substance P agonist and incubated again for 5 hours at 37° C. in 5% CO2. The plates are removed from the incubator and equilibrated at room temperature for 15 minutes. During the equilibration step, the LiveBlazer substrate detection solution (from Invitrogen) is prepared. Six times of substrate mixture is added to each well, followed by incubating the plates in the dark at room temp for 2 hours. The plates are read by the Envision microplate reader in 2 channels using the “Geneblazer 451” protocol, which include a blue channel (Excitement at 405 and Emission at 460) and a green channel (Excitement at 405 and Emission at 535).
FIGS. 45-70 show the NK-1 dosage response curves of compounds described hereinabove with high NK-1 inhibitory effect.

The nature of data set [2]: Cell toxicity.
The target in data set [3] is T2, h5HT3A receptor (Homo sapiens, UniProt P46098).
T2 construct: expressed in transfected cells
T2 sequence (P46098 24-478): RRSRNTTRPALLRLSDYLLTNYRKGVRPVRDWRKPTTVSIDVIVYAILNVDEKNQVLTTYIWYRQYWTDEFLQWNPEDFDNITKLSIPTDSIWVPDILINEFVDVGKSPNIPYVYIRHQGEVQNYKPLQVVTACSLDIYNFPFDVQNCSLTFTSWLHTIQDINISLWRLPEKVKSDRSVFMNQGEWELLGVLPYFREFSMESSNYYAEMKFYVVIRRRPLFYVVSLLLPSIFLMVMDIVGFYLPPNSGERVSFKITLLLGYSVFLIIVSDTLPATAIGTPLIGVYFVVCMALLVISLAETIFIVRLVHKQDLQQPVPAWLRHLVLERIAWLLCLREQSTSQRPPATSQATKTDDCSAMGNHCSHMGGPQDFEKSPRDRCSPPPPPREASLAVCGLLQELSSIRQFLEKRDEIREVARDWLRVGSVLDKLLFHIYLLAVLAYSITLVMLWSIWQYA
The data set can be described thus: Assays for screening 5-HT3a receptor inhibitors (FLIPR calcium assay or aequorin-assisted serotonin receptor assay; dosage response curves). The data set is classed as cell-based. An excerpt:
Various known high through-put screening assays can be used to determine the inhibitory effects of a material on the 5-HT3a receptors.
Due to activation of 5HT3 receptor following calcium and sodium influx and the subsequent rapid intracellular calcium and sodium increase, a calcium indicator (e.g., Fluo-4 AM) or a sodium dye can therefore be readily used to detect influx Ca^+2 or Na^+ signal using the Flourometric Imaging Plate Reader (FLIPR) assay to identify agonists or antagonists of 5-HT3a receptors.
The 5-HT3a FLIPR assay can specifically be conducted by the following steps. First, […] (human embryonic kidney) cells stably expressed with h5HT3A receptor are grown in 16-18 ml growth medium in a 75 cm^2 flask for 2-3 days at 37° C. in a mammalian cell culture incubator with 5% CO2 and 90% humidity. The growth medium may contain, for example, DMEM/F12 (1:1, Invitrogen 11039) supplemented with 10% FBS (fetal bovine serum), 100 μg/ml Antibiotic/Antimycotic, and 150 ug/ml G418. The cell medium is then transferred to a 50 ml tube, and the cells are washed with 10 ml PBS. Subsequently, 2 ml of 0.05% Trypsin-EDTA is added to detach cells, and the above cell medium is added back to flask to inactivate trypsin. Next, the cells are transferred back to the above 50 ml tube, which is centrifuged at 850 rpm for 3 minutes to remove medium. The cells obtained from centrifugation are then re-suspended with growth medium at 1-1.5 ml per flask cells. One vial of Fluo-4 AM (calcium indicator, 50 ug) is subsequently dissolved with 20 ul of Pluronic F-127, and 10 ul of Fluo-4 AM solution per flask cells is added (1 vial of Fluo-4 AM solution, 20 ul, is good for 2 flask of cells). The cells are then stained with Fluo-4 AM for 30 min at room temperature with gently shaking on a shaker, followed by addition of 45 ml of the assay buffer [HBSS with CaCl2 and MgCl2 (Invitrogen 14025), 20 mM HEPES, pH7.2] to wash cells once. Centrifugation is carried out once more at 850 rpm for 3 minutes to remove assay buffer. The resulting cell pellet is again re-suspended in Assay buffer (per flask cells with 18-20 ml assay buffer). Ninety microliters of cells (50K cells/well) is loaded in the 96-well plates that are pre-loaded with the compounds to be tested (10 ul of 1 mM test materials, the final concentration of the test materials will be 100 uM). The plates are placed at room temperature for 15-30 min in dark and then transferred to FLIPR-384 instrument (Molecular Devices). […] The calcium signal of the test plates is finally recorded by the FLIPR program. The average and standard deviations are calculated using Excel, and the background (buffer) is subtracted. The percentage (%) inhibition is then calculated as
[formula] A test material will be considered as having an inhibitory effect against the 5-HT3a receptor if the percentage inhibition calculated is greater than 40%.
Aequorin is a photo-protein originating from the Jellyfish Aequorea Victoria. It is initially translated as an apo-enzyme requiring the hydrophobic group coelenterazine to initiate the conversion to aequorin. Upon binding of calcium, the coelenterazine is oxidized by aequorin into coelenteramide (BFP) resulting in the emission of blue light and CO2. Therefore, it is particularly useful for visualizing or detecting influx Ca^+2 signal.
After 18-24 h of culture, the cells are detached gently by flushing with their cell culture medium. Washing with an additional 10 mLs of cell culture media will ensure that optimum number of cells is captured. The cells are then centrifuged at 150×g, counted and re-suspended at 1×10^6 cells/mL in BSA medium [DMEM/Ham's F12 (with 15 mM HEPES, L-glutamine, without phenol red) culture medium (Invitrogen, Cat. No. 11039-021)+10% protease-free BSA (Sigma Aldrich, Cat. No. A9205) in H2O with a final BSA concentration of 0.1%] in a Falcon tube. Coelenterazine is added at a final concentration of 5 μM in assay medium.

T1 sequence (P25103 whole entry): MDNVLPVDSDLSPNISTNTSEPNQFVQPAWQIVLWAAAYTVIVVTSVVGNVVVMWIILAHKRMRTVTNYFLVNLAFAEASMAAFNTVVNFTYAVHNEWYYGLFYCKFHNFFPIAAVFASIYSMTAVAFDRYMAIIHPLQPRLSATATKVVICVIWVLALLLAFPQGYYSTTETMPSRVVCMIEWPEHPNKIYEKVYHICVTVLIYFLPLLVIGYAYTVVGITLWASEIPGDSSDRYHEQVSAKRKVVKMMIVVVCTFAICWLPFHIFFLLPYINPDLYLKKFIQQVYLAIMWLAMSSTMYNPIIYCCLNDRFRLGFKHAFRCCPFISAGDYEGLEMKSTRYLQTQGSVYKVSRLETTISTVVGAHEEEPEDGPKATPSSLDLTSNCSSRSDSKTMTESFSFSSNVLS

For the compound `CCCCCCCCCCCCCC[C@@H](O)[C@@H](O)[C@@H](N)CO` [Phytosphingosine], the “NK-1 receptor inhibitory effect” value in data set [1] was “surprisingly high”. Besides, the cell toxicity result in data set [2] is listed as “little or no”.

Consider `CC1(C)[C@@H](O)CC[C@]2(C)[C@H]3C(=O)C=C4[C@@H]5C[C@@](C)(C(=O)O)CC[C@]5(C)CC[C@@]4(C)[C@]3(C)CC[C@@H]12` [18-Beta-glycyrrhetic acid], for which, in data set [3], the “5-HT3a receptor inhibitory effect” value is “surprisingly high”. For the same compound, the “NK-1 receptor inhibitory effect” value in data set [1] is given as “surprisingly high”. Moreover, the cell toxicity entry in data set [2] is listed as “little or no”.

On to `CCCC/C=C/C=C/C=O` [Trans,trans-2,4-nonadienal], for which, in data set [1], the “NK-1 receptor inhibitory effect” value was “surprisingly high”. Besides, the cell toxicity result in data set [2] is on record as “little or no”.

For the compound `COc1cc(/C=C/C(=O)CC(=O)/C=C/c2ccc(O)c(OC)c2)ccc1O` [Curcumin], in data set [3], the “5-HT3a receptor inhibitory effect” value is “surprisingly high”. Moreover, the “NK-1 receptor inhibitory effect” value in data set [1] was “surprisingly high”.

`CC/C=C\CC/C=C/CO` [Trans-2,cis-6-nonadienol]: in data set [1], the “NK-1 receptor inhibitory effect” value is reported as “surprisingly high”. In data set [2], the cell toxicity result is “little or no”.

On to `COC1=C(OC)C(=O)C(C)=CC1=O` [Ubiquinone-O], for which the “5-HT3a receptor inhibitory effect” value in data set [3] is “surprisingly high”. In addition, the “NK-1 receptor inhibitory effect” value in data set [1] was “surprisingly high”. For the same compound, the cell toxicity result in data set [2] is “little or no”.

Turning to `Oc1ccc(C=Cc2cc(O)cc(O)c2)cc1` [Resveratrol], the “5-HT3a receptor inhibitory effect” value in data set [3] is on record as “surprisingly high”. Moreover, the “NK-1 receptor inhibitory effect” value in data set [1] is “surprisingly high”.

Turning to `CCCCCCCCCCCCCCCC(=O)OC(CC(=O)O)C[N+](C)(C)C.[Cl-]` (racemic) [DL-palmitoylcarnitine chloride], in data set [3], the “5-HT3a receptor inhibitory effect” value is given as “surprisingly high”. Also, the “NK-1 receptor inhibitory effect” value in data set [1] is “surprisingly high”. Moreover, the cell toxicity result in data set [2] is listed as “little or no”.

As for `O=C(/C=C/c1ccccc1O)c1ccc(O)cc1O` [2,2′,4′-trihydroxy-chalcone], in data set [1], the “NK-1 receptor inhibitory effect” value is on record as “surprisingly high”. The cell toxicity entry in data set [2] is “little or no”.

For `CC/C=C/C=C/C=O` [Trans,trans-2,4-heptadienal], the “NK-1 receptor inhibitory effect” value in data set [1] is reported as “surprisingly high”. Further, the cell toxicity entry in data set [2] was “little or no”.

In the case of `CC1=CC(=O)c2ccccc2C1=O` [Menadione], the “NK-1 receptor inhibitory effect” value in data set [1] is “surprisingly high”. The cell toxicity result in data set [2] is given as “little or no”.

On to `O=c1cc(-c2ccc(O)c(O)c2)oc2cc(O)cc(O)c12` [Luteolin], for which, in data set [3], the “5-HT3a receptor inhibitory effect” value is given as “surprisingly high”. The “NK-1 receptor inhibitory effect” value in data set [1] was “surprisingly high”. Also, the cell toxicity entry in data set [2] is recorded as “little or no”.

In the case of `O=c1c(-c2ccc(O)cc2)coc2cc(O)cc(O)c12` [Genistein], in data set [1], the “NK-1 receptor inhibitory effect” value was “surprisingly high”. The cell toxicity result in data set [2] was “little or no”.

Consider `O=C(/C=C/c1ccccc1)c1ccccc1` [Chalcone], for which the “NK-1 receptor inhibitory effect” value in data set [1] was “surprisingly high”. Besides, in data set [2], the cell toxicity result is reported as “little or no”.

As to `O=C(/C=C/c1ccc(O)cc1)c1ccccc1` [4-Hydroxychalcone], the “5-HT3a receptor inhibitory effect” value in data set [3] was “surprisingly high”. Further, the “NK-1 receptor inhibitory effect” value in data set [1] was “surprisingly high”. The cell toxicity entry in data set [2] is listed as “little or no”.

With `O=c1cc(-c2ccc(O)cc2)oc2cc(O)cc(O)c12` [Apigenin], the “NK-1 receptor inhibitory effect” value in data set [1] is given as “surprisingly high”. Moreover, the cell toxicity entry in data set [2] was “little or no”.

For the compound `O=c1c(O)c(-c2ccccc2)oc2ccc(O)cc12` [3,6-Dihydroxyflavone], the “5-HT3a receptor inhibitory effect” value in data set [3] is listed as “surprisingly high”. The “NK-1 receptor inhibitory effect” value in data set [1] was “surprisingly high”. For the same compound, the cell toxicity entry in data set [2] is “little or no”.

Regarding `COc1ccc(/C=C/C=O)cc1` [Trans-4-methoxycinnamaldehyde], the “NK-1 receptor inhibitory effect” value in data set [1] was “surprisingly high”. Also, the cell toxicity result in data set [2] was “little or no”.

On to `c1ccc2c(Cc3c[nH]c4ccccc34)c[nH]c2c1` [3,3′-diindolylmethane], for which, in data set [1], the “NK-1 receptor inhibitory effect” value was “surprisingly high”. The cell toxicity result in data set [2] is reported as “little or no”.

As to `C[C@H]1[C@H](C)CC[C@]2(C(=O)O)CC[C@]3(C)C(=CC[C@@H]4[C@@]5(C)C[C@@H](O)[C@H](O)[C@@](C)(CO)[C@@H]5CC[C@]43C)[C@H]12` [Asiatic acid], the “5-HT3a receptor inhibitory effect” value in data set [3] is reported as “surprisingly high”. The “NK-1 receptor inhibitory effect” value in data set [1] is given as “surprisingly high”. Moreover, the cell toxicity result in data set [2] was “little or no”.
